Assay results: ChEMBL document CHEMBL1127881 (Bioorg Med Chem Lett, 1994)
Blank lines part the entries; values can stand above or below the compound they belong to.

Legend:
Format in all cases: tissue-based
[1] = biological target: Muscarinic acetylcholine receptor; assay: Compound was tested for its ability to inhibit muscarinic receptor in rat cerebral cortex using [3H]quinuclidinyl benzilate (QNB); Range is 530-1100
[2] = biological target: Muscarinic acetylcholine receptor; assay: Compound was tested for its ability to inhibit muscarinic receptor in rat cerebral cortex using [3H]oxotremorine-M (OXO-M); Range is 48-100
[3] = biological target: Muscarinic acetylcholine receptor; assay: Compound was tested for its ability to inhibit muscarinic receptor in rat cerebral cortex using [3H]quinuclidinyl benzilate (QNB); Range is 330-360
[4] = biological target: Muscarinic acetylcholine receptor; assay: Compound was tested for its ability to inhibit muscarinic receptor in rat cerebral cortex using [3H]oxotremorine-M (OXO-M); Range is 18-21
[5] = biological target: Muscarinic acetylcholine receptor; assay: Compound was tested for its ability to inhibit muscarinic receptor in rat cerebral cortex using [3H]quinuclidinyl benzilate (QNB); Range is 4300-9500
[6] = biological target: Muscarinic acetylcholine receptor; assay: Compound was tested for its ability to inhibit muscarinic receptor in rat cerebral cortex using [3H]oxotremorine-M (OXO-M); Range is 120-220
[7] = biological target: Muscarinic acetylcholine receptor; assay: Compound was tested for its ability to inhibit muscarinic receptor in rat cerebral cortex using [3H]quinuclidinyl benzilate (QNB); Range is 9700-23000
[8] = biological target: Muscarinic acetylcholine receptor; assay: Compound was tested for its ability to inhibit muscarinic receptor in rat cerebral cortex using [3H]oxotremorine-M (OXO-M); Range is 65-260
[9] = biological target: Muscarinic acetylcholine receptor; assay: Compound was tested for its ability to inhibit muscarinic receptor in rat cerebral cortex using [3H]oxotremorine-M (OXO-M); Range is 240-290
[10] = biological target: Muscarinic acetylcholine receptor; assay: Compound was tested for its ability to inhibit muscarinic receptor in rat cerebral cortex using [3H]quinuclidinyl benzilate (QNB);
[11] = biological target: Muscarinic acetylcholine receptor; assay: Compound was tested for its ability to inhibit muscarinic receptor in rat cerebral cortex using [3H]quinuclidinyl benzilate (QNB); Range is […]
[12] = biological target: Muscarinic acetylcholine receptor; assay: Compound was tested for its ability to inhibit muscarinic receptor in rat cerebral cortex using [3H]oxotremorine-M (OXO-M); Range is 28-58
[13] = biological target: Muscarinic acetylcholine receptor; assay: Compound was tested for its ability to inhibit muscarinic receptor in rat cerebral cortex using [3H]quinuclidinyl benzilate (QNB); Range is 3400-4200
[14] = biological target: Muscarinic acetylcholine receptor; assay: Compound was tested for its ability to inhibit muscarinic receptor in rat cerebral cortex using [3H]oxotremorine-M (OXO-M); Range is 21-36
[15] = biological target: Muscarinic acetylcholine receptor; assay: Compound was tested for its ability to inhibit muscarinic receptor in rat cerebral cortex using [3H]oxotremorine-M (OXO-M); Range is 62-70
[16] = biological target: Muscarinic acetylcholine receptor; assay: Compound was tested for its ability to inhibit muscarinic receptor in rat cerebral cortex using [3H]quinuclidinyl benzilate (QNB); Range is 730-1300

SMILES: CO/N=C(/Cl)C1=CC2CCN(C1)C2 (configuration not stated)
IC50 [1]: 770 nM
IC50 [2]: 69 nM

SMILES: CO/N=C(/C#N)C1=CC2CCN(C1)C2 (configuration not stated)
IC50 [3]: 350 nM
IC50 [4]: 20 nM

IC50 [5]: 4500 nM
IC50 [6]: 150 nM
SMILES: CO/N=C(/C#N)C1=CCCN(C)C1

IC50 [7]: 14000 nM
IC50 [8]: 110 nM
SMILES: CO/N=C\C1=CCCN(C)C1

IC50 [9]: 260 nM
IC50 [10]: 2800 nM
SMILES: CO/N=C(/Cl)C1=CCCN(C)C1

SMILES: CO/N=C(/F)C1=CC2CCN(C1)C2 (configuration not stated)
IC50 [11]: 630 nM
IC50 [12]: 26 nM

SMILES: COC(=O)C1=CC2CCN(C1)C2 (configuration not stated)
IC50 [13]: 3800 nM
IC50 [14]: 27 nM

SMILES: CO/N=C\C1=CC2CCN(C1)C2 (configuration not stated)
IC50 [15]: 64 nM
IC50 [16]: 960 nM

IC50 [12]: 39 nM
SMILES: CO/N=C(/F)C1=CCCN(C)C1
